As usually defined, the IC50 is the midpoint of a concentration-inhibition curve.

This experiment concerns the target T1, hNMUR1 (Homo sapiens, UniProt Q9HB89).
T1 sequence (Q9HB89 1-426): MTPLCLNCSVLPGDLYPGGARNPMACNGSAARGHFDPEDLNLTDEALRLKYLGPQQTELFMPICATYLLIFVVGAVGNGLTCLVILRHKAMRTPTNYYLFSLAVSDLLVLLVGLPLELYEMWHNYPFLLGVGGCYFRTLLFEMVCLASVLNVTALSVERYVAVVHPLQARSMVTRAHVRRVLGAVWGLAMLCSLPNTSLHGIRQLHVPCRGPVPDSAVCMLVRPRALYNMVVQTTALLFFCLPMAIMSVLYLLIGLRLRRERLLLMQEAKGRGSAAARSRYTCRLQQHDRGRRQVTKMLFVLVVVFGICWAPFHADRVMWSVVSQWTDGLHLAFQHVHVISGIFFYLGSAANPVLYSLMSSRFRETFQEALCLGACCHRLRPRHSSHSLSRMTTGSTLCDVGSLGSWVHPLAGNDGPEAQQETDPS
The experiment in a line: 125I-hNMU-25 binding assay, human NMUR1 membranes. Details: expressed in transfected cells; host or cells: HEK-293 FLP-In cells (pcDNA5); HEK-293/aeq17 lines (pIRES-puro) were also made; % inhibition of NMU-25 binding / % Activity: concentration or dose not given beside the values. The method, then:
Confluent cell monolayers expressing NMU receptors (the HEK cells described above) were harvested with phosphate buffered saline, collected by centrifugation, and resuspended in membrane buffer (50 mM TrisCl pH 7.4, 5 mM MgCl2, 1× Protease Inhibitor Cocktail, 10 μM phosphoramidon). After the cell pellet was homogenized, the solution was centrifuged at 18,000 rpm for 20 minutes at 4° C. The pellet was resuspended in membrane buffer to yield a final concentration of 0.5-5 μg/μL of membrane and stored at −80° C.
Experiments were performed in assay buffer (25 mM TrisCl, pH 7.4, 10 mM MgCl2, 2 mM EDTA, 1× Protease Inhibitor Cocktail, 100 μg/mL Bacitricin, 10 μM phosphoramidon) in 200 μL volumes in a 96-well format using 2-5 μg of membrane and 0.1 nM ^125I-hNMU-25 (about 12,000 cpm/well). For non-specific binding, 1 μM hNMU-25 was added. About 5 μL of peptides were added to measure antagonist activity, and the entire reaction was incubated at room temperature with shaking for 80 minutes. The reaction was terminated by rapid filtration through 0.3% poly-ethylenimine presoaked Millipore 96-well filter plates and washed with ice-cold buffer (5 mM TrisCl pH 7.4, 10 mM MgCl2, 2.5 mM EDTA, 0.04% Triton X-100). Plates were air-dried overnight at room temperature and recovered radioactivity was determined by standard scintillation counting. IC50 values were determined using GraphPad Prism software.
Concentration-response curves and radioligand-binding data were fitted using Prism (GraphPad Software). Results are summarized below in Tables 8 and 9.

No end group written: not given here. Some results are limits rather than exact numbers.

As for H-FWLFRARN-NH2 [Agonist L], under “Table 9, HEK-hR1, binding”, the “% Activity” value is 0% and the IC50 is greater than 1000 nM.

In the case of H-YFGWRPRN-NH2 [Agonist C], the “% Activity” value (Table 8, HEK-hR1, binding) is given as 100%.

Consider WALFRARN-NH2 [Agonist M], for which, where the note is “Table 9, HEK-hR1, binding”, the “% Activity” value stood at 0% and the half-maximal inhibitory concentration (IC50) was greater than 1000 nM.

On to YFWRPRN-NH2 [Agonist A, YFWRPRN-CONH2], for which the “% Activity” value (Table 8, HEK-hR1, binding) was determined as 94%. This substance gave a concentration for half-maximal inhibition (IC50) (Table 8, HEK-hR1, second (binding) column pair) of 10 nM.
